Reference: the NIST ThermoML archive (doi:10.1021/je049888n)

Legend:
[1] = xn = mol fraction of the nth substance listed

C1CCNCC1 [piperidine] + O
surface tension liquid-gas [mN/m], [1]
Conditions | 293.15 K | 298.15 K | 303.15 K | 313.15 K | 323.15 K
x1 = 0.0076 | 57.25 | 56.85 | 56.45 | 55.56 | 54.62
x1 = 0.013 | 43.84 | 43.58 | 43.32 | 41.58 | 41.41
x1 = 0.0228 | 38.56 | 38.27 | 37.98 | 37.43 | 37.18
x1 = 0.0458 | 37.78 | 37.2 | 36.62 | 35.76 | 34.37
x1 = 0.092 | 35.44 | 34.99 | 34.54 | 33.69 | 32.61
x1 = 0.1542 | 34.34 | 34.02 | 33.7 | 32.67 | 31.8
x1 = 0.2672 | 33.9 | 33.39 | 32.88 | 32.1 | 31.26
x1 = 0.378 | 33.27 | 32.75 | 32.23 | 31.42 | 30.4
x1 = 0.5657 | 31.38 | 31.15 | 30.92 | 30.01 | 29.2
x1 = 0.7524 | 31.02 | 30.42 | 29.82 | 29.01 | 28.1
x1 = 1 | 30.11 | 29.56 | 29.09 | 27.9 | 27

C1CCNCC1 [piperidine]
Conditions | surface tension liquid-gas [mN/m]
293.15 K | 30.11
298.15 K | 29.56
303.15 K | 29.09
313.15 K | 27.9
323.15 K | 27
